The values below come from patent US10457686B2, “[1,2,3]triazolo[4,5-D]pyrimidine derivatives” (Hoffmann-La Roche Inc., priority 2016, dated 2019).

For one assay, the target named is human CB1 (Homo sapiens (Human), UniProt P21554). Briefly: Radioligand binding assay, human CNR1 (CB1) receptor, [3H]-CP-55,940. Particulars: membrane preparations of HEK cells expressing human CNR1; 1.5 nM [3H]-CP-55,940. On the procedure:
(§1) Radioligand Binding Assay
(§2) The affinity of the compounds of the invention for cannabinoid receptors was determined using recommended amounts of membrane preparations (PerkinElmer) of human embryonic kidney (HEK) cells expressing the human CNR1 or CNR2 receptors in conjunction with 1.5 or 2.6 nM [3H]-CP-55,940 (Perkin Elmer) as radioligand, respectively. Binding was performed in binding buffer (50 mM Tris, 5 mM MgCl2, 2.5 mM EDTA, and 0.5% (wt/vol) fatty acid free BSA, pH 7.4 for CB1 receptor and 50 mM Tris, 5 mM MgCl2, 2.5 mM EGTA, and 0.1% (wt/vol) fatty acid free BSA, pH 7.4 for CB2 receptor) in a total volume of 0.2 mL for 1 h at 30° C. shaking. The reaction was terminated by rapid filtration through microfiltration plates coated with 0.5% polyethylenimine (UniFilter GF/B filter plate; Packard). Bound radioactivity was analyzed for Ki using nonlinear regression analysis (Activity Base, ID Business Solution, Limited), with the Kd values for [^3H]CP55,940 determined from saturation experiments.

For another assay, the target named is human CB2 (Homo sapiens (Human), UniProt P34972). Briefly: Radioligand binding assay, human CNR2 (CB2) receptor, [3H]-CP-55,940. Particulars: membrane preparations of HEK cells expressing human CNR2; 2.6 nM [3H]-CP-55,940. The procedure:
as §1, §2
The compounds according to formula (I) have an activity in the above assay (Ki) particularly of 0.5 nM to 10 μM, more particularly of 0.5 nM to 3 μM and most particularly of 0.5 nM to 100 nM.

Sequence of human CB2 (P34972 whole entry): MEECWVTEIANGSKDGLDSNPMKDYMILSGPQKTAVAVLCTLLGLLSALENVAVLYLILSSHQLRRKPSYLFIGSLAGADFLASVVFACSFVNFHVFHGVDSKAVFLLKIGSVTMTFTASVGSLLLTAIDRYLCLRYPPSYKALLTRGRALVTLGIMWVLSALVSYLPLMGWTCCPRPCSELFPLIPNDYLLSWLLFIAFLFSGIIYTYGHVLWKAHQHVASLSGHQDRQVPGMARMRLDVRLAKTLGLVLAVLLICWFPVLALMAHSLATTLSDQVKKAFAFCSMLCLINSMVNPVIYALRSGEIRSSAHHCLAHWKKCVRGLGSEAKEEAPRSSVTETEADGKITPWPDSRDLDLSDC
Sequence of human CB1 (P21554 whole entry): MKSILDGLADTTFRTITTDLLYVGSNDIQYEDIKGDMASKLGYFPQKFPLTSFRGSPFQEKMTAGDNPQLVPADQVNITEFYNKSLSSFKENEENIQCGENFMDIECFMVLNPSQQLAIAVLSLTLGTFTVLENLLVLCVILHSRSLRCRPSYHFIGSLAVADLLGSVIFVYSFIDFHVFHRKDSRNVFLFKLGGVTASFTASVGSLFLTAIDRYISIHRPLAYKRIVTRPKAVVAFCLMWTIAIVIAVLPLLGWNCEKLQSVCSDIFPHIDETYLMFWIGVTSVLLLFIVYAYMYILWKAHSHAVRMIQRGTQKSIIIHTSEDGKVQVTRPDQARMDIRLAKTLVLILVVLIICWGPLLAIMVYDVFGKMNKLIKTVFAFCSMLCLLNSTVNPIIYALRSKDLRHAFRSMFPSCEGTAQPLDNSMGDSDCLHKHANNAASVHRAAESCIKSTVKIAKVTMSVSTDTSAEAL

In general, Ki refers to the equilibrium dissociation constant of an inhibitor or competing ligand from its target. Low readings indicate a stronger hold on the target, high ones a looser hold on the target. With `C#CCCC1(CCNC(=O)c2nonc2Cn2nc3nc(C(C)(C)C)nc(N4CCC(F)(F)C4)c3n2)N=N1` [Example 2, 4-{[5-tert-Butyl-7-(3,3-difluoropyrrolidin-1-yl)-2H-[1,2,3]triazolo[4,5-d]pyrimidin-2-yl]methyl}-N-{2-[3-(but-3-yn-1-yl)-3H-diaziren-3-yl]ethyl}-1,2,5-oxadiazole-3-carboxamide], the figures for the Ki on human CB1 and at human CB2 were above 10 µM and 0.932 µM, respectively.

On to `C#CCCC1(CCNC(=O)c2nonc2Cn2nc3nc(C(C)(C)C)nc(N4CC[C@H](O)C4)c3n2)N=N1` [Example 3, 4-({5-tert-Butyl-7-[(3S)-3-hydroxypyrrolidin-1-yl]-2H-[1,2,3]triazolo[4,5-d]pyrimidin-2-yl}methyl)-N-{2-[3-(but-3-yn-1-yl)-3H-diaziren-3-yl]ethyl}-1,2,5-oxadiazole-3-carboxamide], for which the Ki on human CB1 was above 10 µM; on human CB2, 2.86 µM.

As to `C#Cc1cccc(C2(C(F)(F)F)N=N2)c1Cn1nc2nc(C(F)(F)c3ccccc3)nc(N3CCC(F)(F)C3)c2n1` [Example 4, 5-[Difluoro(phenyl)methyl]-7-(3,3-difluoropyrrolidin-1-yl)-2-[[2-ethynyl-6-[3-(trifluoromethyl)diazirin-3-yl]phenyl]methyl]triazolo[4,5-d]pyrimidine], the inhibitory constant (Ki) was above 10 µM on human CB1 and 1.07 µM at human CB2.

Consider `C#Cc1cccc(C2(C(F)(F)F)N=N2)c1Cn1nc2nc(C(C)(C)C)nc(N3CCC(F)(F)C3)c2n1` [Example 5, 5-tert-Butyl-7-(3,3-difluoropyrrolidin-1-yl)-2-[[2-ethynyl-6-[3-(trifluoromethyl)diazirin-3-yl]phenyl]methyl]triazolo[4,5-d]pyrimidine], for which the results for the inhibition constant (Ki) at human CB1 and on human CB2 were 0.583 µM and 0.0814 µM, respectively.

With `C#Cc1cccc(C2(C(F)(F)F)N=N2)c1Cn1nc2nc(C(C)(C)C)nc(N3CC[C@H](O)C3)c2n1` [Example 6, (3S)-1-[5-tert-Butyl-2-[[2-ethynyl-6-[3-(trifluoromethyl)diazirin-3-yl]phenyl]methyl]triazolo[4,5-d]pyrimidin-7-yl]pyrrolidin-3-ol], the Ki on human CB1 is above 10 µM; at human CB2, 0.0992 µM.

In the case of `C#Cc1cccc(C2(C(F)(F)F)N=N2)c1Cn1nc2nc(C(F)(F)c3ccccc3)nc(N3CC[C@H](O)C3)c2n1` [Example 7, (3S)-1-[5-[Difluoro(phenyl)methyl]-2-[[2-ethynyl-6-[3-(trifluoromethyl)diazirin-3-yl]phenyl]methyl]triazolo[4,5-d]pyrimidin-7-yl]pyrrolidin-3-ol], the inhibition constant (Ki) stood at 5.46 µM on human CB1 and 0.358 µM on human CB2.
